Data published in PMC8763936 (Investigational New Drugs, 2021).
“And” between values parts separate entries of the source, which are not always exact repeats. Equal values may be shown once.

Columns and labels:
[1] = Metabolic profile of entrectinib in human hepatocytes
[2] = target: T1, CYP2C8 (Homo sapiens, UniProt P10632); assay: In vitro CYP inhibition in human liver microsomes; assay type: in vitro ADME; parameters: was investigated in human liver microsomes; from tissue; host or cells: pooled human liver microsomes; details: for IC50: human liver microsomes
T1 sequence (P10632 1-490): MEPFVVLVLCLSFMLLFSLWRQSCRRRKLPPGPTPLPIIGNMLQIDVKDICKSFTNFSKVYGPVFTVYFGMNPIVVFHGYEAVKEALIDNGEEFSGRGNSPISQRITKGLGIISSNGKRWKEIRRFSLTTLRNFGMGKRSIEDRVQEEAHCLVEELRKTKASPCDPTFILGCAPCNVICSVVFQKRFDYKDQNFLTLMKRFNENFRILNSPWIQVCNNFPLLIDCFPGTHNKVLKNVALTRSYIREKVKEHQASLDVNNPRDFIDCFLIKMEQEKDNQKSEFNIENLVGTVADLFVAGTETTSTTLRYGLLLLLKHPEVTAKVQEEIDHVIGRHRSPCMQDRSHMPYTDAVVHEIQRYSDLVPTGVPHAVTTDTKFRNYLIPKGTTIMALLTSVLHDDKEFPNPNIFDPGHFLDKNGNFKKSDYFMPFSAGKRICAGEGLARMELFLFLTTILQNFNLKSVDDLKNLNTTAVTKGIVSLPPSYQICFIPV

[3] = target: CYP2C9 (Homo sapiens, UniProt P11712); assay: Metabolism by recombinantly expressed CYP enzymes
Chain of CYP2C9 (P11712 whole entry): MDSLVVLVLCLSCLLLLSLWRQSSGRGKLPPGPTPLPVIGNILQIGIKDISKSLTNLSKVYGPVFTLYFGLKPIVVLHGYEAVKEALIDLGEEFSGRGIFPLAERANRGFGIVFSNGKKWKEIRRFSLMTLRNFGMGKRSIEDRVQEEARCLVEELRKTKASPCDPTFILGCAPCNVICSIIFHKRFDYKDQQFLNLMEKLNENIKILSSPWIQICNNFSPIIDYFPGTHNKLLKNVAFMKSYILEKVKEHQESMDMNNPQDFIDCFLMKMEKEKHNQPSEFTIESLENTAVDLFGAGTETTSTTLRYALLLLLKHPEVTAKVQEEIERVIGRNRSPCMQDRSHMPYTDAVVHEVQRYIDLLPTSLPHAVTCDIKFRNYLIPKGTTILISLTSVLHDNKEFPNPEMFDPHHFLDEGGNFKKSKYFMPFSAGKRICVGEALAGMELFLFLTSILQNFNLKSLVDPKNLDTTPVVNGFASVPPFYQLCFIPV

[4] = test system: CYP1A2; assay: Induction of CYP enzymes in human hepatocytes; details: for Relative Effectiveness ± SD Based on CYP Activity / Relative Effectiveness ± SD Based on CYP mRNA: percent of positive control
Method: (§1) In vitro induction of CYP mRNA (CYPs 1A2, 2C8, 2C9 and 3A4) or enzyme activity (CYPs 1A2, 2C19 and 3A4) was assessed in human hepatocytes.

[5] = test system: CYP3A4; assay: Induction of CYP enzymes in human hepatocytes; details: for Relative Effectiveness ± SD Based on CYP Activity / Relative Effectiveness ± SD Based on CYP mRNA: percent of positive control
Method: as §1

[6] = target: T2, CYP1A1 (Homo sapiens, UniProt P04798); assay: Metabolism by recombinantly expressed CYP enzymes; parameters: Entrectinib Metabolism to M5: key to the marks not given beside the values
T2 sequence (P04798 1-512): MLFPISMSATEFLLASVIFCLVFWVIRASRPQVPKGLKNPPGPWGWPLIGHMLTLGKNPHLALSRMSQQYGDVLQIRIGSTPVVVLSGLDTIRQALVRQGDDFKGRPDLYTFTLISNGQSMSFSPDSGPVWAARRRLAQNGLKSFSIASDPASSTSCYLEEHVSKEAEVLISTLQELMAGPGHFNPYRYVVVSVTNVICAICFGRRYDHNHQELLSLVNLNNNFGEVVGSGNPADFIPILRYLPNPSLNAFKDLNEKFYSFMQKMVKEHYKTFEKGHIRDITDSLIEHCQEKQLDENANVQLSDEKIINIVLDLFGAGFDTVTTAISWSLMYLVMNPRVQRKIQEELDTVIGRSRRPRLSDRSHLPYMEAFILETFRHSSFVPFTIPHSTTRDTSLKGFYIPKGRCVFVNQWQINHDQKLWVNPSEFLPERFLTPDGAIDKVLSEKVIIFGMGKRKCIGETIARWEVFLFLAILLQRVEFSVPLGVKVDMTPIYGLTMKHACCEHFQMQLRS

[7] = Study 1 Cohort 1: single dose entrectinib alone or with itraconazole, plasma pharmacokinetics; details: for M5/Entrectinib ratio, AUCinf / M5/Entrectinib ratio, Cmax: arithmetic mean (CV)
Method: All doses of study medication were administered at the study center.

[8] = target: T3, CYP2B6 (Homo sapiens, UniProt P20813); assay: Metabolism by recombinantly expressed CYP enzymes
T3 sequence (P20813 1-491): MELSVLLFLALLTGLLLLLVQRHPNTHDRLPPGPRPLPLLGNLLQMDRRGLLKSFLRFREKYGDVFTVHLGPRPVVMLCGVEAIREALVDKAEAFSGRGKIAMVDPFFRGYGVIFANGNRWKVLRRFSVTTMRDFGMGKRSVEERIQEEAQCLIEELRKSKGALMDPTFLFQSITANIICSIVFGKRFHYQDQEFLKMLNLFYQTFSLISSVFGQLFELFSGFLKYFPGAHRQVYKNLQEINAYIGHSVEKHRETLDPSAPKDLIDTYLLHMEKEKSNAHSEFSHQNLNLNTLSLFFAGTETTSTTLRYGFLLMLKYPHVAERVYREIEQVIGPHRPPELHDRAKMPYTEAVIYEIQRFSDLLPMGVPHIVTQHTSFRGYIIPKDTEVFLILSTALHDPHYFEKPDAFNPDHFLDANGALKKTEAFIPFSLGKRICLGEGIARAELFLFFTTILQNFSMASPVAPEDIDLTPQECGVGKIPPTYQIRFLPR

[9] = target: T4, CYP1A2 (Homo sapiens, UniProt P05177); assay: In vitro CYP inhibition in human liver microsomes; assay type: in vitro ADME; parameters: purchased Corning-Gentest
T4 sequence (P05177 1-516): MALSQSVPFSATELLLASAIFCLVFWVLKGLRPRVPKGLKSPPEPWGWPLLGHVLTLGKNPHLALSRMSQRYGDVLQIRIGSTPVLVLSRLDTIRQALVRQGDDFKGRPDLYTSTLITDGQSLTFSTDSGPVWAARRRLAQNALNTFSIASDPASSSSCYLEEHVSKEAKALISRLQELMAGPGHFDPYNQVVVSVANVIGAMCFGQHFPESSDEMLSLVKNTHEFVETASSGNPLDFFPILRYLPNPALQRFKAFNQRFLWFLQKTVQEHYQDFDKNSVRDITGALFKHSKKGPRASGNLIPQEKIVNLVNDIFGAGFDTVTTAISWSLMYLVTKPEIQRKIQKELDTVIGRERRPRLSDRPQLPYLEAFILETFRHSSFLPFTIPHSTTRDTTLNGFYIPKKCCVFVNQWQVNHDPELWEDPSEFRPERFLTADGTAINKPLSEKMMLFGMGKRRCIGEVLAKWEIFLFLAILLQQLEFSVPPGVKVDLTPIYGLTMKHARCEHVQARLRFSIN

[10] = Entrectinib 100 mg alone, geometric mean (geometric CV)
[11] = Entrectinib 100 mg with itraconazole 200 mg QD, geometric mean (geometric CV)
[12] = Entrectinib 100 mg with itraconazole

## CN1CCN(c2ccc(C(=O)Nc3n[nH]c4ccc(Cc5cc(F)cc(F)c5)cc34)c(NC3CCOCC3)c2)CC1 [Entrectinib]
[1]; after 120 min of incubation
  drug metabolized: 29%
[2]
  IC50: > 10 µM
[3]
  Entrectinib Metabolism to M5: -
  Entrectinib Metabolism to other Products: -
[4]; human hepatocytes
  induction of CYP1A2 mRNA or enzyme activity: did not significantly induce
[5]; in vitro
  CYP3A4 induction in vitro, in words: weak CYP3A4 inducer
[6]
  Entrectinib Metabolism to M5: ++
  Entrectinib Metabolism to other Products: +
[7]; [10]
  t1/2: 20.2 (17%) h
[7]; [11]
  t1/2: 49.8 (22%) h
[7]; entrectinib coadministered with itraconazole vs alone
  increase of AUCinf: 504%
[7]; human, in vivo
  Tmax: 5 h
[7]; human, in vivo, 100 mg
  AUC(0-inf): 6.19 µM·h
  Cmax: 358 nM
  Tmax: 2 h
[7]; human, in vivo, 100 mg, t1/2, Entrectinib 100 mg alone, geometric mean (geometric CV)
  half-life: 20 h
[7]; human, in vivo, t1/2, Entrectinib 100 mg with itraconazole 200 mg QD, geometric mean (geometric CV)
  half-life: 50 h
[7]; with itraconazole vs entrectinib alone
  median Tmax later: approximately 3 h
[8]
  Entrectinib Metabolism to M5: -
  Entrectinib Metabolism to other Products: -
[9]
  IC50: > 10 µM

## O=C(Nc1n[nH]c2ccc(Cc3cc(F)cc(F)c3)cc12)c1ccc(N2CCNCC2)cc1NC1CCOCC1 [M5]
[1]
  share of entrectinib metabolism: 41%
  share of total drug-related material: 12%
[2]; free Cmax 0.0134 μM vs IC50 about 4.9 μM
  free Cmax lower than the CYP2C8 IC50: > 300 fold
[2]
  IC50: ~4.9 µM and 4.9 µM
[3]
  M5 Metabolism: -
[4]; M5 0.5 µM
  Relative Effectiveness ± SD Based on CYP Activity: 0.575% ±0.657
  Relative Effectiveness ± SD Based on CYP mRNA: 0.22% ±0.23
[4]; M5 2.5 µM
  Relative Effectiveness ± SD Based on CYP Activity: 1.30% ±1.4
  Relative Effectiveness ± SD Based on CYP mRNA: 1.22% ±0.87
[4]; M5 10 µM
  Relative Effectiveness ± SD Based on CYP Activity: 0.445% ±0.27
  Relative Effectiveness ± SD Based on CYP mRNA: 1.70% ±0.15
[5]; M5 0.5 µM
  Relative Effectiveness ± SD Based on CYP Activity: 1.25% ±1.17
  Relative Effectiveness ± SD Based on CYP mRNA: 1.16% ±1.47
[5]; M5 2.5 µM
  Relative Effectiveness ± SD Based on CYP Activity: 4.61% ±3.06
  Relative Effectiveness ± SD Based on CYP mRNA: 5.9% ±5.01
[5]; M5 10 µM
  Relative Effectiveness ± SD Based on CYP Activity: 5.42% ±4.45
  Relative Effectiveness ± SD Based on CYP mRNA: 16.5% ±11.2
[5]; human hepatocytes
  impact on the mRNA expression or activity of CYP3A4: no significant impact
[6]
  M5 Metabolism: +
[7]; Entrectinib 100 mg alone, single dose, healthy subjects, fasted, geometric mean (geometric CV)
  AUCinf: 1710 (30%) nM•h
[7]; Entrectinib 100 mg alone
  M5/Entrectinib ratio, AUCinf: 0.288 (28%)
  M5/Entrectinib ratio, Cmax: 0.151 (26%)
[7]; [10]
  Cmax: 52.3 nM
  t1/2: 41 h and 40.8 (22%) h
[7]; Entrectinib 100 mg alone, median (minimum, maximum)
  Tmax: 5.0 (3.0, 5.0) h
[7]; [11]
  AUCinf: 4310 (30%) nM•h
  Cmax: 31.5 nM
  t1/2: 88.0 (32%) h
[7]; Entrectinib 100 mg with itraconazole 200 mg QD, median (minimum, maximum)
  Tmax: 6.0 (5.0, 48.0) h
[7]; [12]
  M5/Entrectinib ratio, AUCinf: 0.124 (29%)
  M5/Entrectinib ratio, Cmax: 0.0538 (34%)
[7]; coadministration of itraconazole with entrectinib
  increase in AUCinf: approximately 2.5 fold
[7]; entrectinib 100 mg alone
  M5 exposure as share of entrectinib exposure (mean M5/entrectinib ratio for AUCinf): approximately 29%
[7]; entrectinib 100 mg coadministered with itraconazole
  M5 exposure as share of entrectinib exposure (mean M5/entrectinib ratio for AUCinf): 12%
[8]
  M5 Metabolism: -
[9]
  IC50: > 10 µM
